“Also recorded” adds a separate entry of the source.
T1: 15N-bOBP (Bos taurus, UniProt P07435)
T1 construct: 6xHis (N, cleaved yes); Thioredoxin (Trx) (N, cleaved yes); TEV cleavage site (N, cleaved yes); made in house; host or cells: E. coli BL21 (M9 minimal medium for 15N labelling)
T1 sequence (P07435 with tags, fused parts or gaps): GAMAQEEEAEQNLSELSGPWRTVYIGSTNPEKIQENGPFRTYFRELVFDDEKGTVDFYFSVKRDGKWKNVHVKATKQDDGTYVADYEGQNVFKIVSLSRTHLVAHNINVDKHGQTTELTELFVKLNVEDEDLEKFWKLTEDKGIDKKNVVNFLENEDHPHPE

B1: OBP: Recombinant bovine odorant-binding protein, lipocalin family, without ligand (protein, listed as Bos taurus)
chain: AQEEEAEQNLSELSGPWRTVYIGSTNPEKIQENGPFRTYFRELVFDDEKGTVDFYFSVKRDGKWKNVHVKATKQDDGTYVADYEGQNVFKIVSLSRTHLVAHNINVDKHGQTTELTELFVKLNVEDEDLEKFWKLTEDKGIDKKNVVNFLENEDHPHPE

Tests used:
[1] = test system: Balb/c mice sensitized with OVA; assay: OVA allergic asthma model, intranasal application of test substance; assay type: in vivo, mouse; conditions: for Bronchoalveolar lavage (BAL) eosinophil numbers / AHR to increasing doses of methacholine: 12 intranasal applications d0-d26, analysis day 28; for Bronchoalveolar lavage (BAL) eosinophil numbers: FIG. 10; for AHR to increasing doses of methacholine: FlexiVent, FIG. 11
Method: Control mice were sham sensitized to PBS. Error bars reflect SEM. P values reflect one-way ANOVA, *: p value<0.05, **: p value<0.01; (FA: (E)-12-oxoheptadec-10-enaic acid).
Control mice were sham sensitized to PBS. Error bars reflect SEM. (FA: (E)-12-oxoheptadec-10-enaic acid).
Balb/c mice were first be sensitized with 10 μg OVA in Alum i.p. on day 0, 7 and 14. Three consecutive intranasal challenges with 100 μg OVA on day 25, 26 and 27, with analysis being undertaken on day 28, follows. From d0-d26 there were 12 consecutive intranasal applications of test substance. Asthma pathogenesis was assessed using methacholine lung function challenge to examine AHR as undertaken in allergic asthma patients. Furthermore, pathological manifestations such as eosinophilia was assessed. • Sensitzation: 10 μg valbumin (OVA Grade VI, Sigma, Stainheim, D) dissolved in 100 μl PBS on days 0, 7 and 14 of the assay protocol together with 100 μl (1 mg) of the adjuvant aluminium hydroxyde (Al(OH)3) (Inject Alum, Pierce, USA). • Challenge: OVA Grade V in 100 μg/mouse in 25 μl (concentration: 4 mg/ml)
Eosiniphilnumbers in the Bronchoalveolar lavage (BAL) are shown in FIG. 10. • Airway Hyperresponsivenes (AHR): Dynamic resistance and compliance (in response to increasing doses of MCh) FlexiVent results are shown in FIG. 11.

[2] = biological target: T1, 15N-bOBP; assay: NMR binding studies (1H,15N-HSQC titration); conditions: 200 μM 15N-bOBP alone or in presence of 1 mM and 2 mM fatty acid, pH 6.5, 25° C.
Method: NMR binding studies. Overlay of ^1H, […] spectra of ^15N-bOBP alone and in presence of 5- and 10-fold excess of (E)-12-oxoheptadec-10-enoic acid. Arrow and inlet show CSP of exemplary peak. Arrows and inlets show CSP of exemplary peaks.
NMR measurements were performed in 3 mm tubes at 25° C. on a Bruker Avance III spectrometer operating at 600 MHz ^1H frequencies using H/N/C triple-resonance cryogenic probes. To confirm fatty acid binding, two-dimensional ^1H, ^15N heteronuclear single quantum correlation (HSQC) spectra were recorded of 200 μM ^15N-bOBP in 20 mM phosphate buffer pH 6.5, 50 mM NaCl, 1 mM β-mercaptoethanol and 10% (v/v) D20 alone or in presence of 1 mM and 2 mM fatty acid.

[3] = biological target: T2, human TLR2 (Homo sapiens, UniProt O60603); assay: Activation of TLR-2, NFkB induction in HEK-Blue-hTLR2 cells (SEAP reporter); assay type: cell-based; conditions: human TLR2 transfected HEK cells; positive control Pam3CSK4; FIG. 5
T2 construct: host or cells: HEK293 (HEK-Blue-hTLR2)
T2 sequence (O60603 21-784): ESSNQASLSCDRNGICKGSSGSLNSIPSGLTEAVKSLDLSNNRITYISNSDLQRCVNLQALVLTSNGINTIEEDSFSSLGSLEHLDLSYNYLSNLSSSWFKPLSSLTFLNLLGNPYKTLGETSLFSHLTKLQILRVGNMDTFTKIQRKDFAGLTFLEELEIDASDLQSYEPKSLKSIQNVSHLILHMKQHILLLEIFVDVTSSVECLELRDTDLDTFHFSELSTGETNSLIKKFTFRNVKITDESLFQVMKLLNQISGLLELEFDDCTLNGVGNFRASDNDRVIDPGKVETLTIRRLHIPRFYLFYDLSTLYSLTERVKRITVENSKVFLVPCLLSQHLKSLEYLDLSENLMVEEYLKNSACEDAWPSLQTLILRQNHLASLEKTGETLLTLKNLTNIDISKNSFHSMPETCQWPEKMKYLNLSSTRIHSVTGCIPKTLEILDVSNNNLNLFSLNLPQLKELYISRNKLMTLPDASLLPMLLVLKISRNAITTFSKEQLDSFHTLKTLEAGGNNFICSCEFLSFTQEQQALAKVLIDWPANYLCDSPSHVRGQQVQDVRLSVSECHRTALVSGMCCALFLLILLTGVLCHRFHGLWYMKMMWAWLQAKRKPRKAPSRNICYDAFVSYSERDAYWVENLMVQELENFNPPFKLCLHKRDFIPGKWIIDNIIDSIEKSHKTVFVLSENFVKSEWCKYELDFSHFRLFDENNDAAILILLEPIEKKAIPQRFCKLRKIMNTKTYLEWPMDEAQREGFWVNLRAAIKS
Source text: NKfB induction in HEK-hTLR2. Dotted line: PBS/DMSO (negative control); Pam3CSK4=positive control; Farm dust (Hec 20)=Cow shed dust extract>10 kDa autoclaved; Bosd2+FA=His-Trx-Bos d2+€-12-oxoheptadec-10-enaic acid; OBP+FA=bOBP+€-12-oxoheptadec-10-enaic acid; OBP=bOBP; FA=€-12-oxoheptadec-10-enaic acid.
HEK-Blue™-hTLR2 cells (InvivoGen) are obtained by co-transfection of the human TLR2 and SEAP (secreted embryonic alkaline phosphatase) genes into HEK293 cells. The SEAP reporter gene is placed under the control of the IFN-β minimal promoter fused to five NF-κB and AP-1-binding sites. Additionally, the CD14 co-receptor gene was transfected into these cells to enhance the TLR2 response. Stimulation with a TLR2 ligand activates NF-κB and AP-1, which in turn induce the production of SEAP. Levels of SEAP are determined with HEK-Blue™ Detection, a cell culture medium that allows for real-time detection of SEAP.

[4] = test system: OVA pulsed BMDCs cocultured with OT-II CD4 T cells; assay: DC/T-cell interaction assay; assay type: cell-based, mouse; conditions: pre-treatment of BMDCs (two treatments), LPS stimulation, FIG. 8
Method: Effect of lipoprotein candidates on DC T-cell interaction: OVA pulsed BMDCs enhanced OT-II CD4 T cell number (Medium), which was prevented by pre-treatment of BMDCs with, Bos d2+FA and OPB+FA. CD4+ count: For each sample 10400 counting beads were added to tube and 5000 beads were counted for recording. CD4+ count indicates the amount of CD4+ cells contained in the volume needed to count 5000 beads. (FA: (E)-12-oxoheptadec-10-enaic acid).
DCs are professional antigen presenting cells crucial for the priming of CD4 T cells in asthma and allergy. The mouse primary bone marrow derived DCs (BMDCs) were utilized to evaluate the ability of the test substances to modulate their activation. DC activation is monitored their ability to regulate the differentiation and proliferation of OVA-specific CD4 T cells (OT-II) following DC pulsing with the OVA peptide.
For this assay, bone marrow derived DCs are isolated from C57B16 mice and put into culture. […]
Isolate bone marrow from wild-type C57BL/6 mouse and seed cells in 10 ml Petri dishes in 10 ml volume (2 million cells/dish) containing 20 ng/ml rmGM-CSF. […] Cells were then collected and counted with the help of counting beads and seeded in V bottom 96 well plates (10000 cells/well) and pulsed with OVA peptide (323-339) for 3 hours. […] 20000 stained T Cells were cocultured with DCs for […], and T Cells were then analyzed with flow cytometry.

[5] = test system: 16HBE cells; assay: TEER assay, epithelial barrier function; assay type: cell-based; conditions: 20 μg/ml, 24 hours after treatment; compared with cow SDE at 200 μg/ml; FIG. 6
Method: TEER Assay: 16HBE: untreated cells; Farm dust (Hec 20)=Cow shed dust extract>10 kDa autoclaved, 200 μg/ml; Bosd2+FA=His-Trx-Bos d2+(E)-12-oxoheptadec-10-enaic acid, 20 μg/ml; OBP+FA=bOBP+(E)-12-oxoheptadec-10-enaic acid, 20 μg/ml.
To examine the effect of the Lipoproteins Bos d2+FA and OBP+FA on the epithelial barrier function as measured by transepithelial electrical resistance (TEER). 16HBE (100.000 (1×10*5)) cells were seeded on transwell inserts in […] medium (MEM with Earle's salt, 10% FBS (during cultivation only, during assay no FBS), 1% L-Glutamine, 1% Penicillin/Streptomycin). After 24 hours of culture, cells were treated with the indicated compounds, and 24 hours after treatment, TEER values were determined using an EVOM2 epithelial voltohmmeter (World Precision Instruments). Cow SDE was used at 200 μg/ml, all other compounds were used at 20 μg/ml.

Molecule | Bronchoalveolar lavage (BAL) eosinophil numbers [1] | AHR to increasing doses of methacholine [1] | chemical shift perturbations (CSP) in 1H,15N-HSQC spectra [2] | NFkB induction in HEK-hTLR2 (TLR2 activation) [3] | OT-II CD4 T cell number (CD4+ count) [4] | transepithelial electrical resistance (TEER) [5] | AHR effect compared with OBP alone ([1]; same model as E7)
CCCCCC(=O)/C=C/CCCCCCCCC(=O)O [FA, (E)-12-oxoheptadec-10-enoic acid] | does not have an effect | an effect on AHR | chemical shift perturbations (CSP) which is indicative for ligand binding |  |  |  | 
Bos d2+FA: Lipoprotein complex of His-Trx-Bos d2 with (E)-12-oxoheptadec-10-enoic acid |  |  |  | even stronger effect than the cow SDE | prevented | stronger effect, at much lower concentration | 
OBP+FA: Lipoprotein complex of bOBP incubated with 5 fold molar excess of (E)-12-oxoheptadec-10-enoic acid, dialysed | prevented allergic asthma | significant effect; also recorded: prevented allergic asthma |  | even stronger effect than the cow SDE | prevented | stronger effect, at much lower concentration | slightly better than for OBP alone
B1 | prevented allergic asthma | significant effect; also recorded: prevented allergic asthma |  | had an effect as well, but higher concentrations are needed |  |  | 

Reference: patent publication US20240316187A1, “PROTEINS IDENTIFIED FROM BARN DUST EXTRACT FOR THE PREVENTION AND TREATMENT OF DISEASES” (Helmholtz Zentrum München - Deutsches Forschungszentrum für …, priority 2021, published 2024)
